Laboratory results reported in ChEMBL document CHEMBL1938376, “In vitro and in silico studies of polycondensed diazine systems as anti-parasitic agents” (Bioorg Med Chem Lett, 2012).
pIC50: −log10 of the molar value.

Experiments:
Trypanosoma brucei = experiment: Antiparasitic activity against trypomastigote form of drug-sensitive Trypanosoma brucei assessed as inhibition of parasite growth after 4 days using alamar blue/resazurin staining by fluorimetric method; assay type: functional, organism-based
Leishmania infantum = experiment: Antiparasitic activity against amastigotes of Leishmania infantum infected in mouse peritoneal macrophages after 5 days using giemsa staining by microscopic analysis; assay type: functional, organism-based
Trypanosoma cruzi = experiment: Antiparasitic activity against nifurtimox-sensitive amastigotes of Trypanosoma cruzi Tulahuen expressing LacZ gene infected in human MRC5 cells using chlorophenolred b-Dgalacto-pyranoside as substrate by colorimetric method; assay type: functional, organism-based
[1] = Solubility of the compound; assay type: physicochemical
[2] = Solubility of the compound in 13% DMSO/water; assay type: physicochemical; conditions: buffer
MRC5 = experiment: Cytotoxicity against human MRC5 cells after 4 to 7 days using alamar blue/resazurin staining by fluorescence assay; assay type: cell-based
[3] = Selectivity index, ratio of IC50 for human MRC5 cells to IC50 for drug-sensitive trypomastigotes of Trypanosoma brucei; assay type: toxicity, cell-based; conditions: read-out: Ratio IC50
Plasmodium falciparum = experiment: Antimalarial activity against chloroquine-sensitive Plasmodium falciparum GHA infected in human erythrocytes assessed as parasite growth after 72 hrs by malstat reagent based spectrophotometric method; assay type: functional, organism-based
[4] = Solubility of the compound in 100% DMSO; assay type: physicochemical
[5] = Selectivity index, ratio of IC50 for human MRC5 cells to IC50 for nifurtimox-sensitive amastigotes of Trypanosoma cruzi; assay type: toxicity, cell-based; conditions: read-out: Ratio IC50
[6] = Selectivity index, ratio of IC50 for human MRC5 cells to IC50 for chloroquine-sensitive Plasmodium falciparum GHA; assay type: toxicity, cell-based; conditions: read-out: Ratio IC50
[7] = Trypanosoma cruzi, Tulahuen, MRC5
[8] = Plasmodium falciparum, GHA, 72 h

Row | pIC50 (Trypanosoma brucei; Trypanosoma brucei, 96 h) | pIC50 (Leishmania infantum; Leishmania infantum, 120 h) | solubility [1] | solubility [2] | solubility [4] | pIC50 (Trypanosoma brucei) | pIC50 (Leishmania infantum) | Structure (SMILES) | pIC50 (Trypanosoma cruzi; [7]) | pIC50 (MRC5; Homo sapiens, MRC5) | selectivity ratio [3] | pIC50 (Plasmodium falciparum; [8]) | selectivity ratio [5] | selectivity ratio [6] | pIC50 (Trypanosoma cruzi; mrc5) | pIC50 (MRC5; mrc5) | pIC50 (Plasmodium falciparum)
1 | 5.69 | 4.49 | soluble | soluble |  |  |  | O=C(C1=NN(c2ccccc2)C2C3N(c4ccccc4)N=C(C(=O)c4ccccc4)N3c3ccccc3N12)c1ccccc1 (configuration not stated) | 4.19 | 4.76 | 2 | 4.56 |  |  |  |  | 
2 | 4.19 | 4.19 |  | soluble |  |  |  | C1=NN(c2ccccc2)C2C3N(C=NN3c3ccccc3)c3ccccc3N12 (configuration not stated) | 4.19 | 4.19 |  | 4.53 |  |  |  |  | 
3 | 4.19 | 4.19 |  | soluble |  |  |  | COC(=O)C1=NN(c2ccccc2)C2=CNc3c(C)cccc3N21 | 4.19 | 4.19 |  | 4.19 |  |  |  |  | 
4 | 4.19 | 4.49 |  | soluble |  |  |  | COC(=O)C1=NN(c2ccccc2)C2C3N(c4ccccc4)N=C(C(=O)OC)N3c3[nH]c(-c4ccccc4)cc3N12 (configuration not stated) | 4.19 | 4.19 |  | 5.16 |  |  |  |  | 
5 | 4.19 | 4.49 | soluble |  | Insoluble |  |  | CC(=O)C1=NN(c2ccccc2)C2C3N(c4ccccc4)N=C(C(C)=O)N3c3[nH]c(-c4ccccc4)cc3N12 (configuration not stated) | 4.19 | 4.19 |  | 5.67 |  |  |  |  | 
6 | 4.49 | 4.19 |  | soluble |  |  |  | CCOC(=O)C1=NN(c2ccc(Cl)cc2)C2C3N(c4ccc(Cl)cc4)N=C(C(=O)OCC)N3c3[nH]c(-c4ccccc4)cc3N12 (configuration not stated) | 4.39 | 4.19 |  | 4.57 |  |  |  |  | 
7 | 4.19 | 4.19 |  |  | Insoluble |  |  | C1=C(c2ccccc2)NC2=NC=C3N(c4ccccc4)N=C(c4ccccc4)N3C12 (configuration not stated) | 4.19 | 4.19 |  | 4.19 |  |  |  |  | 
8 | 4.19 | 4.19 |  |  | Insoluble |  |  | COC(=O)C1=NN(c2ccccc2)C2=CN=C3NC(c4ccccc4)=CC3N21 (configuration not stated) | 4.19 | 4.19 |  | 4.19 |  |  |  |  | 
9 | 4.19 | 4.19 |  | soluble |  |  |  | COC(=O)C1=NN(c2ccc(Cl)cc2)C2C3N(c4ccc(Cl)cc4)N=C(C(=O)OC)N3c3c(C)cccc3N12 (racemic) | 4.19 | 4.19 |  | 4.37 |  |  |  |  | 
10 | 4.19 | 4.19 |  | soluble |  |  |  | COC(=O)C1=NN(c2ccccc2)[C@@H]2N1c1ccccc1N1C(C(=O)OC)=NN(c3ccccc3)[C@@]21C (racemic) | 5.37 | 4.19 |  | 4.93 | 6 |  |  |  | 
11 | 4.19 | 4.19 | soluble | soluble |  |  |  | CCOC(=O)C1=NN(c2ccc(Cl)cc2)[C@@H]2N1c1ccccc1N1C(C(=O)OCC)=NN(c3ccc(Cl)cc3)[C@@]21C (racemic) | 4.19 | 4.19 |  | 6.30 |  | 128 |  |  | 
12 | 4.49 | 4.62 |  | soluble |  |  |  | CC(=O)C1=NN(c2ccccc2)[C@@H]2N1c1ccccc1N1C(C(C)=O)=NN(c3ccccc3)[C@@]21C (racemic) | 4.47 | 4.19 |  | 4.53 |  |  |  |  | 
13 | 5.69 | 5.10 |  | soluble |  |  |  | C[C@]12[C@@H]3N(c4ccccc4)N=C(C(=O)c4ccccc4)N3c3ccccc3N1C(C(=O)c1ccccc1)=NN2c1ccccc1 (racemic) | 5.00 | 4.19 | 2 | 5.08 |  |  |  |  | 
14 | 4.19 | 4.19 |  | soluble |  |  |  | COC(=O)C1=NN(c2ccc(Cl)cc2)C2(C1)Nc1ccccc1N1C(C(=O)OC)=NN(c3ccc(Cl)cc3)C12 (racemic) | 4.19 | 4.19 |  | 4.19 |  |  |  |  | 
15 |  | 4.49 |  | soluble |  | 4.19 |  | CC(=O)C1=NN(c2ccccc2)C2C3N(c4ccccc4)N=C(C(C)=O)N3c3ccccc3N12 (stereo in doubt; 4a) |  |  |  |  |  |  | 4.42 | 4.19 | 4.19
16 |  |  |  |  |  | 5.09 | 4.49 | CC(=O)C1=NN(c2ccccc2)C2C3N(c4ccccc4)N=C(C(C)=O)N3c3ccccc3N12 (stereo in doubt; 4b) |  |  |  |  |  |  | 4.90 | 4.53 | 5.07
17 | 4.19 | 4.19 |  | soluble |  |  |  | COC(=O)C1=NN(c2ccccc2)C2C3N(c4ccccc4)N=C(C(=O)OC)N3c3ccccc3N12 (stereo in doubt; 4d) | 4.19 | 4.19 |  |  | 6 |  |  |  | 4.91
18 |  |  |  |  |  | 4.46 |  | COC(=O)C1=NN(c2ccccc2)C2C3N(c4ccccc4)N=C(C(=O)OC)N3c3ccccc3N12 (stereo in doubt; 4e) |  |  |  |  |  |  | 4.37 | 4.48 | 4.59
19 |  | 4.19 |  | soluble |  | 4.19 |  | CCOC(=O)C1=NN(c2ccc(Cl)cc2)C2C3N(c4ccc(Cl)cc4)N=C(C(=O)OCC)N3c3ccccc3N12 (stereo in doubt; 4f) |  |  |  |  |  |  | 4.19 | 4.19 | 4.43
20 |  |  | soluble |  |  | 5.70 | 4.49 | CCOC(=O)C1=NN(c2ccc(Cl)cc2)C2C3N(c4ccc(Cl)cc4)N=C(C(=O)OCC)N3c3ccccc3N12 (stereo in doubt; 4g) |  |  | 2 |  | 6 |  | 5.06 | 4.91 | 4.73
